Laboratory results taken from ChEMBL document CHEMBL1944600, “Synthesis of chromeno[3,4-b]indoles as Lamellarin D analogues: a novel DYRK1A inhibitor class” (Eur J Med Chem, 2012).

How the values were obtained:
[1] = molecular target: Dual specificity tyrosine-phosphorylation-regulated kinase 1A (Rattus norvegicus, UniProt Q63470); assay: Inhibition of GST-tagged rat recombinant DYRK1A expressed in Escherichia coli using myelin basic protein as substrate and [gamma-33P]ATP after 30 mins by scintillation counting
[2] = molecular target: Cyclin-dependent kinase 5/CDK5 activator 1 (Homo sapiens, UniProt Q00535); assay: Inhibition of human recombinant CDK5/p25 using [gamma-33P]ATP after 30 mins by scintillation counting; assay type: protein-complex assay
[3] = molecular target: Glycogen synthase kinase-3 (Sus scrofa, UniProt B2LUN4+I6LNT8); assay: Inhibition of porcine brain GSK3alpha/beta using GS-1 as substrate
CCRF-CEM = assay: Cytotoxicity against human CEM cells; assay type: functional, cell-based
[4] = molecular target: T1, DNA topoisomerase 1 (Homo sapiens) (UniProt P11387); assay: Human topoisomerase 1-mediated nicking of supercoiled plasmid pUC19 DNA at 20 uM by agarose gel electrophoresis
T1 sequence (whole entry): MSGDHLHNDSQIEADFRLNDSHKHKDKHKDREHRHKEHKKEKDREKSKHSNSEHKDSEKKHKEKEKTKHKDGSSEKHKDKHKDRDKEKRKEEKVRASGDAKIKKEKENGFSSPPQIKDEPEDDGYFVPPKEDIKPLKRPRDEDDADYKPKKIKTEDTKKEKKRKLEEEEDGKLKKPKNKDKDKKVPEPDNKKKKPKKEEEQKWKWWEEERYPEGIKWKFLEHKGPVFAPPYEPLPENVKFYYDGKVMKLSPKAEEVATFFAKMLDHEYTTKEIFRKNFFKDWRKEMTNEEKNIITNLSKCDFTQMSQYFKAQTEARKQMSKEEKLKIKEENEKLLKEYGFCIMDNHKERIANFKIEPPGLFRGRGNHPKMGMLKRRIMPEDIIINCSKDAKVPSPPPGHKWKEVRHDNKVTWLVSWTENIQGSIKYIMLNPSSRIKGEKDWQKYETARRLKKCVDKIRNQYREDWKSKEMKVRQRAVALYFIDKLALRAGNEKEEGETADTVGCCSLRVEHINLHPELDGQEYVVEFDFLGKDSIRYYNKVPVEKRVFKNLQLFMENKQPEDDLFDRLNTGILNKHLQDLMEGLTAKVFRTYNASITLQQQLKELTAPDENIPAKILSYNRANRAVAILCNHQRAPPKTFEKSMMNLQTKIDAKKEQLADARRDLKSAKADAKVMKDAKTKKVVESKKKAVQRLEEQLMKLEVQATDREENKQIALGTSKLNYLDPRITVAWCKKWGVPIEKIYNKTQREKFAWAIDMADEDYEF

[5] = molecular target: T1, DNA topoisomerase 1 (Homo sapiens); assay: Human topoisomerase 1-mediated nicking of supercoiled plasmid pUC19 DNA at 100 uM by agarose gel electrophoresis

Sequence of Cyclin-dependent kinase 5/CDK5 activator 1 (Q00535 whole entry): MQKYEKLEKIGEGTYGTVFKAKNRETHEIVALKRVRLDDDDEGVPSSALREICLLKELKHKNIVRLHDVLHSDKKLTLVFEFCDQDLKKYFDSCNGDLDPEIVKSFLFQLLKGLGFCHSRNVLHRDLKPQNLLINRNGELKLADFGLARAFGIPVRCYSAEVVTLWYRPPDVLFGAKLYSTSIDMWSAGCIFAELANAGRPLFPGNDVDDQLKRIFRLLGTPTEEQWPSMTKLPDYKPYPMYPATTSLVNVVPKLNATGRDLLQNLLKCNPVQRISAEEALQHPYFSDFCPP
Sequence of Cyclin-dependent kinase 5/CDK5 activator 1 (Q15078 whole entry, further chain): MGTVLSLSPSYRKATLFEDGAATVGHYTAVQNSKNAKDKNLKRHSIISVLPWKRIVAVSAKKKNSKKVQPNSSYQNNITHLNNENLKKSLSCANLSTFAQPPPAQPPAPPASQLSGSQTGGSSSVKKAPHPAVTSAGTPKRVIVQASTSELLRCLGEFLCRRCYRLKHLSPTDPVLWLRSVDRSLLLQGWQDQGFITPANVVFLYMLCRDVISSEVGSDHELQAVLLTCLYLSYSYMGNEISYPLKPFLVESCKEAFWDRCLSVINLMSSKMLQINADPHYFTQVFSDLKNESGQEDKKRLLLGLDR

SMILES	IC50 [1] [µM]	IC50 [2] [µM]	IC50 [3]	IC50 (CCRF-CEM) [µM]	% nicked DNA [4] [%]	% nicked DNA [5] [%]
O=c1oc2cc(O)c(O)cc2c2c1[nH]c1ccc(O)cc12	1.5	> 10	1.3 µM			
COc1ccc(-c2ccc3c(c2)[nH]c2c(=O)oc4ccc(O)cc4c23)cc1	> 10	> 10	> 10 µM			
Cc1ccc2c(c1)[nH]c1c(=O)oc3ccc(O)cc3c12	3.3	> 10	> 10 µM			
O=c1oc2ccc(O)cc2c2c1[nH]c1ccc(C(F)(F)F)cc12	≥ 10	≥ 10	>= 10 uM			
O=c1oc2cc(O)ccc2c2c1[nH]c1cc(O)ccc12	3.2	10	10 µM			
O=c1oc2ccc(O)cc2c2c1[nH]c1cc3c(cc12)OCO3	1.8	16	> 10 µM			
O=c1oc2ccc(O)cc2c2c1[nH]c1ccc(F)cc12	0.21	8.4	2.5 µM			
COc1cc(-c2c3c4cc(OC)c(O)cc4oc(=O)c3n3ccc4cc(O)c(OC)cc4c23)ccc1O [LAMELLARIN D]				15	22	21
O=c1oc2cc(O)ccc2c2c1[nH]c1ccc(O)cc12	0.3	4.2	0.42 µM	38.5	16	21
O=c1oc2ccc(O)cc2c2c1[nH]c1ccccc12	0.074	2.7	0.38 µM			
O=c1oc2ccc(O)cc2c2c1[nH]c1cccc(C(F)(F)F)c12	2.1	> 10	>= 10 uM			
Cc1cccc2[nH]c3c(=O)oc4ccc(O)cc4c3c12	0.66	> 10	5.9 µM			
CC[C@@]1(O)C(=O)OCc2c1cc1n(c2=O)Cc2cc3ccccc3nc2-1 [CAMPTOTHECIN]				0.005		
O=c1oc2ccccc2c2c1[nH]c1cccc(-c3ccc(O)cc3)c12	≥ 10	≥ 10	> 10 µM			
O=c1oc2ccc(O)cc2c2c1[nH]c1ccc(O)cc12	0.067	0.72	0.31 µM			
O=c1oc2ccccc2c2c1[nH]c1ccccc12	> 10	> 10	> 10 µM			
COc1cccc2[nH]c3c(=O)oc4ccc(O)cc4c3c12	0.35	≥ 10	3.3 µM			
O=c1oc2ccc(O)cc2c2c1[nH]c1cc(O)ccc12	4.3	> 10	> 10 µM			
COc1cccc2oc(=O)c3[nH]c4ccccc4c3c12	> 10	> 10	> 10 µM			
O=c1oc2cc(O)ccc2c2c1[nH]c1ccccc12	0.5	4.7	0.44 µM			
CCCOc1cccc2[nH]c3c(=O)oc4ccc(O)cc4c3c12	1.7	> 10	8.1 µM			
O=c1oc2ccc(O)cc2c2c1[nH]c1cccc(-c3ccc(O)cc3)c12	≥ 10	≥ 10	> 10 µM			
